The data set can be described thus: xn = mol fraction of the nth substance listed. As to conditions: 101 kPa.

Consider `CC[N+](CC)(CC)CC.[Cl-]` + CC(=O)O, for which the viscosity is, setting by setting: (298.15 K, x1 = 0.333) 34.46 mPa·s; (303.15 K, x1 = 0.333) 27.81 mPa·s; (308.15 K, x1 = 0.333) 22.91 mPa·s; (313.15 K, x1 = 0.333) 19.51 mPa·s; (318.15 K, x1 = 0.333) 16.53 mPa·s; (323.15 K, x1 = 0.333) 13.93 mPa·s.

`C[P+](c1ccccc1)(c1ccccc1)c1ccccc1.[Br-]` + OCCO registered a viscosity (313.15 K, x1 = 0.25) of 53.81 mPa·s; a viscosity (318.15 K, x1 = 0.25) of 40.74 mPa·s; a viscosity (328.15 K, x1 = 0.25) of 25.16 mPa·s; a viscosity (333.15 K, x1 = 0.25) of 20.33 mPa·s.

Source of the values: a compilation of properties of binary mixtures (doi:10.1016/j.molliq.2020.113127).
